Results: patent US20220323383A1, “SMALL-MOLECULAR ADJUVANTS AND IMPLEMENTATIONS THEREOF” (JAWAHARLAL NEHRU CENTRE FOR ADVANCED SCIENTIFIC RESEARCH, priority 2019, published 2022)

How the values were obtained:
Format in all cases: cell-based
human RBCs = assay: Haemolytic activity; settings: concentration at which 50% of human blood cells are lysed; 1 h at 37° C.
Procedure: Erythrocytes were isolated from freshly drawn, heparanized human blood and re-suspended to 5 vol % in PBS (pH 7.4). In a 96-well microtiter plate, 150 μl of erythrocyte suspension was added to 50 μl of serially diluted compound. Two controls were made, one without compound and other with 50 μl of 1 vol % solution of Triton X-100. The plate was incubated for 1 h at 37° C. The plate was then centrifuged at 3,500 rpm for 5 min, 100 μl of the supernatant from each well was transferred to a fresh 96-well microtiter plate, and A540 was measured. Percentage of hemolysis was determined as (A−A0)/(Atotal−A0)×100, where A is the absorbance of the test well, A0 the absorbance of the negative controls (without compound), and Atotal the absorbance of 100% hemolysis wells (with Triton X-100), all at 540 nm.
Toxicity studies of the compounds were done on freshly drawn human RBCs. Toxicity of the compounds were defined by their HC50 values (Table 2), i.e. the concentration of compound at which 50% of the blood cells are lysed.

K. pneumoniae R3934 [1] = assay: Individual antibacterial activity (MIC) of adjuvants; settings: Klebsiella pneumoniae; adjuvant alone; K. pneumoniae R3934; read-out: MIC against clinical isolates of bacteria
Procedure: (§1) The combination efficacy with antibiotics from different classes and individual antibacterial activity of the synthesized adjuvants was evaluated against the above mentioned MDR and NDM-1 strains of Gram-negative bacteria. All the bacteria were grown in peptone. The bacterial samples were freeze dried and stored at −80° C. 3 μl of these stocks were added to 3 mL of peptone and the culture was grown for 6 h at 37° C. prior to the experiments.
(§2) All synthesized compounds were assayed for their antibacterial activity in combination with antibiotics in a modified chequerboard micro-dilution broth format. Stock solutions were made by serially diluting the compounds using autoclaved millipore water. The bacterial freeze dried stock samples were stored at −80° C. About 3 μL of these stocks were added to about 3 mL of the respective broth and the culture was grown for about 6 h at about 37° C. with prior to the experiments. This 6 h grown culture gives about 10^8 cfu/mL in case of A. baumannii R674, P. aeruginosa R590, E. coli R3336 and K. pneumoniae R3934 which were determined by spread plating method. This 6 h grown culture was diluted to give effective cell concentration of 10^5 cfu/mL, and then used for the chequerboard assay. Adjuvants and antibiotics were serially diluted in two-fold, in sterile millipore water. 25 μL of these serial dilutions of the antibiotics and 25 μL of compounds were added to the wells of 96 well plate followed by the addition of about 150 μL of bacterial solution (˜10^5 cfu/mL). The plates were then incubated at about 37° C., 150 rpm in the incubator and O.D at 600 nm was recorded at 24 h using TECAN (Infinite series, M200 pro) Plate Reader. The wells with similar OD as the media control contained the required concentration of the antibiotic and adjuvant for antibacterial efficacy. The potentiation ability of the adjuvants was determined by calculating the potentiation factor and the Fractional Inhibitory concentration (FIC) index. Fractional Inhibitory Concentration (FIC) is expressed as, FIC=[X]/MICX, where [X] is the lowest inhibitory concentration of antibiotic in the presence of the adjuvant. Whereas FIC index is expressed as, FICI=FICantibiotic+FICadjuvant. The values of FIC index give an insight about the nature of the combination. Potentiation factor which means fold-reduction in the MIC of the antibiotic, when used in combination with the adjuvant was also determined. Potentiation factor=[Minimum inhibitory concentration (MIC) of antibiotic in absence of adjuvant]/[MIC of antibiotic in presence of adjuvant]. […] The combination efficacies of adjuvants with various antibiotics are furnished in Table 1. It should be noted that various other resistant strains of bacteria (Gram-positive and Gram-negative) can be tested with a number of other antibiotics to check the potentiation capacity of the adjuvants.

A. baumannii R674 [2] = assay: as above; settings: Acinetobacter baumannii; adjuvant alone; A. baumannii R674; read-out: MIC against clinical isolates of bacteria
Procedure: as §1, §2

E. coli R3336 [3] = assay: as above; settings: Escherichia coli, R3336, read-out: MIC against clinical isolates of bacteria
Procedure: as §1, §2

P. aeruginosa R590 [4] = assay: as above; settings: Pseudomonas aeruginosa; adjuvant alone; P. aeruginosa R590; read-out: MIC against clinical isolates of bacteria
Procedure: as §1, §2

K. pneumoniae R3934 [5] = assay: Chequerboard combination efficacy of adjuvant with antibiotics
Procedure: (§3) All the solvents were of reagent grade, which were distilled and dried before its use. All the reagents were purchased from Sigma-Aldrich, Alfa-Aesar, S.D. Fine, Avra and Spectrochem, and were used without further purification. Analytical thin layer chromatography (TLC) was performed on E. Merck TLC plates pre-coated with silica gel 60 F254 and visualization was carried out using UV light and Iodine. Column chromatography was performed on silica gel (60-120 mesh) using different ratio of chloroform and methanol solvent system. Nuclear magnetic resonance spectra were recorded on Bruker (AV-400) 400 MHz spectrometer in deuterated solvents. Mass spectra were obtained using 6538-UHD Accurate mass Q-TOF LC-MS instrument. For optical density measurement during bacteriology experiments, Tecan Infinite Pro series M200 Microplate Reader was used. Bacterial strains, A. baumannii (R674), P. aeruginosa (R590), E. coli (R3336) and K. pneumoniae (R3934) were used for the studies.
as §1, §2

A. baumannii R674 [6] = assay: as above
Procedure: as §3, §1, §2

E. coli R3336 [7] = assay: as above
Procedure: as §3, §1, §2

P. aeruginosa R590 [8] = assay: as above; settings: P. aeruginosa R590
Procedure: as §3, §1, §2

Question: `NCCCC[C@H](N)C(=O)NCCCCCCN(CCCCCCNC(=O)[C@@H](N)CCCCN)CC(=O)NC1C2CC3CC(C2)CC1C3` (stereo partly shown) [Compound 15, N-(adamantan-2-yl)-2-[N′,N′-{bis-(6-^LLys) amido)hexyl} amino] ethanamide pentakistrifluoroacetate] was tested. Which HC50 (human RBCs) did it give?
Answer: >1024 µg/mL

Question: What about the MIC (K. pneumoniae R3934 [1]) of the same compound?
Answer: > 512 µg/mL

Question: And the MIC (A. baumannii R674 [2])?
Answer: 128 µg/mL

Question: What about the MIC (E. coli R3336 [3]) of the same compound?
Answer: > 512 µg/mL

Question: And the MIC (P. aeruginosa R590 [4])?
Answer: 64 µg/mL

Question: And the FICI (K. pneumoniae R3934 [5]; antibiotic Fusidic acid)?
Answer: <0.0781

Question: And the “MIC of antibiotic in presence of adjuvant” value (“MIC of antibiotic” for short) (K. pneumoniae R3934 [5]; antibiotic Fusidic acid)?
Answer: 8 µg/mL

Question: What about the Potentiation factor (K. pneumoniae R3934 [5]; antibiotic Fusidic acid) of the same compound?
Answer: 64

Question: And the “MIC of antibiotic” value (K. pneumoniae R3934 [5]; antibiotic Linezolid)?
Answer: No potentiation

Question: And the FICI (K. pneumoniae R3934 [5]; antibiotic Minocycline)?
Answer: <0.07

Question: What about the “MIC of antibiotic” value (K. pneumoniae R3934 [5]; antibiotic Minocycline) of the same compound?
Answer: 0.5 µg/mL

Question: What about the Potentiation factor (K. pneumoniae R3934 [5]; antibiotic Minocycline) of the same compound?
Answer: 128

Question: And the FICI (K. pneumoniae R3934 [5]; antibiotic Rifampicin)?
Answer: <0.1289

Question: What about the “MIC of antibiotic” value (K. pneumoniae R3934 [5]; antibiotic Rifampicin) of the same compound?
Answer: 2 µg/mL

Question: And the Potentiation factor (K. pneumoniae R3934 [5]; antibiotic Rifampicin)?
Answer: 256

Question: And the “MIC of antibiotic” value (A. baumannii R674 [6]; antibiotic Ampicillin)?
Answer: No potentiation

Question: And the FICI (A. baumannii R674 [6]; antibiotic Ciprofloxacin)?
Answer: 1.25

Question: And the “MIC of antibiotic” value (A. baumannii R674 [6]; antibiotic Ciprofloxacin)?
Answer: 64 µg/mL

Question: What about the Potentiation factor (A. baumannii R674 [6]; antibiotic Ciprofloxacin) of the same compound?
Answer: 4

Question: And the FICI (A. baumannii R674 [6]; antibiotic Erythromycin)?
Answer: 0.1875

Question: What about the “MIC of antibiotic” value (A. baumannii R674 [6]; antibiotic Erythromycin) of the same compound?
Answer: 32 µg/mL

Question: What about the Potentiation factor (A. baumannii R674 [6]; antibiotic Erythromycin) of the same compound?
Answer: 16

Question: And the FICI (A. baumannii R674 [6]; antibiotic Fusidic acid)?
Answer: <0.07

Question: And the “MIC of antibiotic” value (A. baumannii R674 [6]; antibiotic Fusidic acid)?
Answer: <0.5 µg/mL

Question: What about the Potentiation factor (A. baumannii R674 [6]; antibiotic Fusidic acid) of the same compound?
Answer: >128

Question: And the FICI (A. baumannii R674 [6]; antibiotic Linezolid)?
Answer: 1.125

Question: And the Potentiation factor (A. baumannii R674 [6]; antibiotic Linezolid)?
Answer: 8

Question: And the FICI (A. baumannii R674 [6]; antibiotic Minocycline)?
Answer: 0.5625

Question: What about the “MIC of antibiotic” value (A. baumannii R674 [6]; antibiotic Minocycline) of the same compound?
Answer: 0.5 µg/mL

Question: What about the Potentiation factor (A. baumannii R674 [6]; antibiotic Minocycline) of the same compound?
Answer: 16

Question: And the FICI (A. baumannii R674 [6]; antibiotic Rifampicin)?
Answer: 0.1289

Question: And the “MIC of antibiotic” value (A. baumannii R674 [6]; antibiotic Rifampicin)?
Answer: 0.25 µg/mL

Question: And the Potentiation factor (A. baumannii R674 [6]; antibiotic Rifampicin)?
Answer: 256

Question: What about the “MIC of antibiotic” value (A. baumannii R674 [6]; antibiotic Streptomycin) of the same compound?
Answer: No potentiation

Question: And the FICI (A. baumannii R674 [6]; antibiotic Tetracycline)?
Answer: 0.5156

Question: And the “MIC of antibiotic” value (A. baumannii R674 [6]; antibiotic Tetracycline)?
Answer: 2 µg/mL

Question: And the Potentiation factor (A. baumannii R674 [6]; antibiotic Tetracycline)?
Answer: 64

Question: And the FICI (A. baumannii R674 [6]; antibiotic Vancomycin)?
Answer: 0.5625

Question: What about the Potentiation factor (A. baumannii R674 [6]; antibiotic Vancomycin) of the same compound?
Answer: 2

Question: And the FICI (E. coli R3336 [7]; antibiotic Fusidic acid)?
Answer: <0.1875

Question: What about the Potentiation factor (E. coli R3336 [7]; antibiotic Fusidic acid) of the same compound?
Answer: >16

Question: What about the “MIC of antibiotic” value (E. coli R3336 [7]; antibiotic Linezolid) of the same compound?
Answer: No potentiation

Question: What about the FICI (E. coli R3336 [7]; antibiotic Minocycline) of the same compound?
Answer: <0.0469

Question: And the “MIC of antibiotic” value (E. coli R3336 [7]; antibiotic Minocycline)?
Answer: 0.5 µg/mL

Question: And the Potentiation factor (E. coli R3336 [7]; antibiotic Minocycline)?
Answer: 64

Question: What about the FICI (E. coli R3336 [7]; antibiotic Rifampicin) of the same compound?
Answer: <0.0469

Question: And the “MIC of antibiotic” value (E. coli R3336 [7]; antibiotic Rifampicin)?
Answer: 16 µg/mL

Question: What about the Potentiation factor (E. coli R3336 [7]; antibiotic Rifampicin) of the same compound?
Answer: 32

Question: And the Potentiation factor (P. aeruginosa R590 [8]; antibiotic Chloramphenicol)?
Answer: 4

Question: What about the FICI (P. aeruginosa R590 [8]; antibiotic Colistin) of the same compound?
Answer: 0.3125

Question: And the “MIC of antibiotic” value (P. aeruginosa R590 [8]; antibiotic Colistin)?
Answer: 0.25 µg/mL

Question: What about the Potentiation factor (P. aeruginosa R590 [8]; antibiotic Colistin) of the same compound?
Answer: 4

Question: And the “MIC of antibiotic” value (P. aeruginosa R590 [8]; antibiotic Daptomycin)?
Answer: No potentiation

Question: What about the FICI (P. aeruginosa R590 [8]; antibiotic Fusidic acid) of the same compound?
Answer: <0.1289

Question: And the “MIC of antibiotic” value (P. aeruginosa R590 [8]; antibiotic Fusidic acid)?
Answer: <0.25 µg/mL

Question: And the Potentiation factor (P. aeruginosa R590 [8]; antibiotic Fusidic acid)?
Answer: >256

Question: And the FICI (P. aeruginosa R590 [8]; antibiotic Linezolid)?
Answer: 0.2812

Question: What about the Potentiation factor (P. aeruginosa R590 [8]; antibiotic Linezolid) of the same compound?
Answer: 4

Question: And the FICI (P. aeruginosa R590 [8]; antibiotic Minocycline)?
Answer: 0.5

Question: What about the “MIC of antibiotic” value (P. aeruginosa R590 [8]; antibiotic Minocycline) of the same compound?
Answer: 2 µg/mL

Question: What about the Potentiation factor (P. aeruginosa R590 [8]; antibiotic Minocycline) of the same compound?
Answer: 4

Question: And the FICI (P. aeruginosa R590 [8]; antibiotic Rifampicin)?
Answer: <0.126

Question: What about the “MIC of antibiotic” value (P. aeruginosa R590 [8]; antibiotic Rifampicin) of the same compound?
Answer: <0.125 µg/mL

Question: And the Potentiation factor (P. aeruginosa R590 [8]; antibiotic Rifampicin)?
Answer: >1024

Question: And the FICI (P. aeruginosa R590 [8]; antibiotic Tetracycline)?
Answer: 0.5078

Question: What about the “MIC of antibiotic” value (P. aeruginosa R590 [8]; antibiotic Tetracycline) of the same compound?
Answer: 2 µg/mL

Question: What about the Potentiation factor (P. aeruginosa R590 [8]; antibiotic Tetracycline) of the same compound?
Answer: 128
